Read-outs that look alike come from different tables or passages of the source.
How the values were obtained:
VRSA strains = experiment: MIC by agar dilution or microbroth dilution method (NCCLS), VRSA strains; type: cell-based, Staph. aureus; conditions: VRSA strains (n = 10); for MIC: Staphylococcus aureus
Experimental: (§1) Bacterial isolates were obtained from human infections. The isolates were maintained frozen in a liquid nitrogen freezer and plated on Trypticase Soy Agar (TSA) plates supplemented with 5% sheep blood. The quality control strain Staph. aureus 29213 was originally acquired from the American Type Culture Collection (Rockville, Md.).
(§2) MICs were determined by an agar dilution method or microbroth dilution method recommended by NCCLS. Synergy was assessed by agar dilution checker-board method. Minimal inhibitory concentrations (MICS) for each separate drug were determined. The fractional inhibitory concentration (FIC) values were calculated by the MIC of Drug A (e.g., sulbactam/ampicillin) and Drug B (e.g., linezolid or arbekacin) in combination/MIC of Drug A or B alone. The FIC index was determined according to the following formula: [formula]
In total, 48 MRSA strains were tested, including ten VRSA strains isolated from five different countries in the world, 33 MRSA strains isolated from ten Japanese university hospitals, and five MRSA type strains from Juntendo University, Department of Bacteriology, Tokyo, Japan.

MRSA strains = experiment: MIC by agar dilution or microbroth dilution method (NCCLS); type: cell-based, Staph. aureus; conditions: for MIC: Staphylococcus aureus
Experimental: as §1, §2

Staph. aureus 29213 = experiment: MIC, quality control strain; type: cell-based; conditions: for MIC: Staphylococcus aureus, read-out: MIC Values
Experimental: as §1, §2

[1] = MRSA / NCTC 10442, strain NCTC 10442, read-out: MIC Values
[2] = MRSA, MRSA strains (n = 38), read-out: MICs 50%
[3] = MRSA, MRSA strains (n = 38), read-out: MICs 90%
[4] = MRSA, strain 85/2082, read-out: MIC Values
[5] = MRSA, strain 99.3700W, read-out: MIC Values
[6] = MRSA, strain 99.3759V, read-out: MIC Values
[7] = MRSA, strain AMC 11094, read-out: MIC Values
[8] = MRSA, strain BM12612(new), read-out: MIC Values
[9] = MRSA, strain H1, read-out: MIC Values
[10] = MRSA, strain HIP 5827, read-out: MIC Values
[11] = MRSA, strain HIP 5836, read-out: MIC Values
[12] = MRSA, strain HIP 6297, read-out: MIC Values
[13] = MRSA, strain HIP 7737, read-out: MIC Values
[14] = MRSA, strain JSCC 340, read-out: MIC Values
[15] = MRSA, strain JSCC 351, read-out: MIC Values
[16] = MRSA, strain JSCC 363, read-out: MIC Values
[17] = MRSA, strain JSCC 381, read-out: MIC Values
[18] = MRSA, strain JSCC 390, read-out: MIC Values
[19] = MRSA, strain JSCC 401, read-out: MIC Values
[20] = MRSA, strain JSCC 413, read-out: MIC Values
[21] = MRSA, strain JSCC 431, read-out: MIC Values
[22] = MRSA, strain JSCC 440, read-out: MIC Values
[23] = MRSA, strain JSCC 451, read-out: MIC Values
[24] = MRSA, strain JSCC 463, read-out: MIC Values
[25] = MRSA, strain JSCC 481, read-out: MIC Values
[26] = MRSA, strain JSCC 490, read-out: MIC Values
[27] = MRSA, strain JSCC 501, read-out: MIC Values
[28] = MRSA, strain JSCC 513, read-out: MIC Values
[29] = MRSA, strain JSCC 531, read-out: MIC Values
[30] = MRSA, strain JSCC 540, read-out: MIC Values
[31] = MRSA, strain JSCC 551, read-out: MIC Values
[32] = MRSA, strain JSCC 563, read-out: MIC Values
[33] = MRSA, strain JSCC 581 (lacks the mecA gene), read-out: MIC Values
[34] = MRSA, strain JSCC 590 (lacks the mecA gene), read-out: MIC Values
[35] = MRSA, strain JSCC 601, read-out: MIC Values
[36] = MRSA, strain JSCC 640, read-out: MIC Values
[37] = MRSA, strain JSCC 651, read-out: MIC Values
[38] = MRSA, strain JSCC 663, read-out: MIC Values
[39] = MRSA, strain JSCC 681, read-out: MIC Values
[40] = MRSA, strain JSCC 690, read-out: MIC Values
[41] = MRSA, strain JSCC 701, read-out: MIC Values
[42] = MRSA, strain JSCC 713, read-out: MIC Values
[43] = MRSA, strain JSCC 731, read-out: MIC Values
[44] = MRSA, strain JSCC 740, read-out: MIC Values
[45] = MRSA, strain JSCC 751, read-out: MIC Values
[46] = MRSA, strain JSCC 763, read-out: MIC Values
[47] = MRSA, strain JSCC 781, read-out: MIC Values
[48] = MRSA, strain JSCC 870, read-out: MIC Values
[49] = MRSA, strain LIM 2, read-out: MIC Values
[50] = MRSA, strain Mu 3, read-out: MIC Values
[51] = MRSA, strain Mu 50, read-out: MIC Values
[52] = MRSA, strain N315, read-out: MIC Values
[53] = ATCC29213, strain ATCC 29213, control sample (Ex. 26)
[54] = ATCC29213, strain ATCC29213, control sample (Ex. 37)

NCC[C@H](O)C(=O)N[C@@H]1C[C@H](N)[C@@H](O[C@H]2O[C@H](CN)CC[C@H]2N)[C@H](O)[C@H]1O[C@H]1O[C@H](CO)[C@@H](O)[C@H](N)[C@H]1O [ABK, arbekacin]
0.125 to 4 mg/L: MICs Range (VRSA strains) | MICs Range (MRSA strains; MRSA strains (n = 38))
0.25 µg/mL: MIC (MRSA strains; [4]) | MIC (MRSA strains; [7]) | MIC (MRSA strains; [22]) | MIC (MRSA strains; [28]) | MIC (MRSA strains; [34]) | MIC (MRSA strains; [35]) | MIC (MRSA strains; [46]) | MIC (Staph. aureus 29213; [53]) | MIC (Staph. aureus 29213; [54])
1 µg/mL: MIC (VRSA strains; read-out: MICs 50%) | MIC (MRSA strains; [9]) | MIC (MRSA strains; [10]) | MIC (MRSA strains; [11]) | MIC (MRSA strains; [14]) | MIC (MRSA strains; [15]) | MIC (MRSA strains; [16]) | MIC (MRSA strains; [20]) | MIC (MRSA strains; [21]) | MIC (MRSA strains; [25]) | MIC (MRSA strains; [30]) | MIC (MRSA strains; [37]) | MIC (MRSA strains; [39]) | MIC (MRSA strains; [41]) | MIC (MRSA strains; [49])
0.125 µg/mL: MIC (MRSA strains; [1]) | MIC (MRSA strains; [12]) | MIC (MRSA strains; [13]) | MIC (MRSA strains; [32]) | MIC (MRSA strains; [44])
0.5 µg/mL: MIC (MRSA strains; [2]) | MIC (MRSA strains; [17]) | MIC (MRSA strains; [18]) | MIC (MRSA strains; [19]) | MIC (MRSA strains; [24]) | MIC (MRSA strains; [26]) | MIC (MRSA strains; [27]) | MIC (MRSA strains; [29]) | MIC (MRSA strains; [33]) | MIC (MRSA strains; [38]) | MIC (MRSA strains; [43]) | MIC (MRSA strains; [48]) | MIC (MRSA strains; [52])
4 µg/mL: MIC (VRSA strains; read-out: MICs 90%) | MIC (MRSA strains; [5]) | MIC (MRSA strains; [23]) | MIC (MRSA strains; [51])
2 µg/mL: MIC (MRSA strains; [3]) | MIC (MRSA strains; [6]) | MIC (MRSA strains; [8]) | MIC (MRSA strains; [31]) | MIC (MRSA strains; [36]) | MIC (MRSA strains; [40]) | MIC (MRSA strains; [42]) | MIC (MRSA strains; [45]) | MIC (MRSA strains; [47]) | MIC (MRSA strains; [50])

CC1(C)SC2C(NC(=O)C(N)c3ccccc3)C(=O)N2C1C(=O)O (stereo not drawn) [ABPC, α-aminobenzylpenicillin]
0.5 µg/mL: MIC (MRSA strains; [33]) | MIC (MRSA strains; [34]) | MIC (Staph. aureus 29213; [53])
16 µg/mL: MIC (MRSA strains; [2]) | MIC (MRSA strains; [7]) | MIC (MRSA strains; [9]) | MIC (MRSA strains; [11]) | MIC (MRSA strains; [12]) | MIC (MRSA strains; [16]) | MIC (MRSA strains; [20]) | MIC (MRSA strains; [23]) | MIC (MRSA strains; [24]) | MIC (MRSA strains; [28]) | MIC (MRSA strains; [31]) | MIC (MRSA strains; [35]) | MIC (MRSA strains; [36]) | MIC (MRSA strains; [38]) | MIC (MRSA strains; [39]) | MIC (MRSA strains; [40]) | MIC (MRSA strains; [42]) | MIC (MRSA strains; [44]) | MIC (MRSA strains; [47])
1 µg/mL: MIC (MRSA strains; [32])
8 µg/mL: MIC (MRSA strains; [46]) | MIC (MRSA strains; [52])
32 µg/mL: MIC (VRSA strains; read-out: MICs 50%) | MIC (MRSA strains; [4]) | MIC (MRSA strains; [5]) | MIC (MRSA strains; [13]) | MIC (MRSA strains; [15]) | MIC (MRSA strains; [17]) | MIC (MRSA strains; [18]) | MIC (MRSA strains; [22]) | MIC (MRSA strains; [27]) | MIC (MRSA strains; [29]) | MIC (MRSA strains; [30]) | MIC (MRSA strains; [41]) | MIC (MRSA strains; [43]) | MIC (MRSA strains; [48]) | MIC (MRSA strains; [49]) | MIC (MRSA strains; [50]) | MIC (MRSA strains; [51])
< 128 µg/mL: MIC (MRSA strains; [1])
64 µg/mL: MIC (VRSA strains; read-out: MICs 90%) | MIC (MRSA strains; [3]) | MIC (MRSA strains; [6]) | MIC (MRSA strains; [8]) | MIC (MRSA strains; [10]) | MIC (MRSA strains; [14]) | MIC (MRSA strains; [21]) | MIC (MRSA strains; [25]) | MIC (MRSA strains; [26]) | MIC (MRSA strains; [37]) | MIC (MRSA strains; [45])
0.25 µg/mL: MIC (Staph. aureus 29213; [54])
16 to 64 mg/L: MICs Range (VRSA strains)
128 µg/mL: MIC (MRSA strains; [19])

Cc1onc(-c2ccccc2)c1C(=O)N[C@@H]1C(=O)N2[C@@H]1SC(C)(C)[C@@H]2C(=O)O [MPIPC, oxacillin]
16 µg/mL: MIC Values (MRSA strains; strain N315)
2 µg/mL: MIC Values (MRSA strains; strain JSCC 563)
0.25 µg/mL: MIC Values (Staph. aureus 29213; strain ATCC 29213, control sample (Ex. 26)) | MIC Values (Staph. aureus 29213; strain ATCC29213, control sample (Ex. 37))
64 µg/mL: MIC Values (MRSA strains; strain 85/2082) | MIC Values (MRSA strains; strain HIP 6297) | MIC Values (MRSA strains; strain JSCC 601)
1 µg/mL: MIC Values (MRSA strains; strain JSCC 581 (lacks the mecA gene)) | MIC Values (MRSA strains; strain JSCC 590 (lacks the mecA gene))
